# In patent US12370170B2, “Composition comprising naphthoquinone-based compound as active ingredient, for preventing or ameliorating fatigue, cachexia, pain, cognitive decline and hematopoietic stem cell reduction which are side effects related to anticancer drug treatment” (NADIANBIO LTD., priority 2016, dated 2025):
# Experiments:
# Assay type in all cases: in vivo, C57BL/6 mice
# orexin = experiment: Orexin protein in hypothalamus by ELISA, 4×ACP animal model; settings: β-lapachone 20 mg/kg oral daily from 3 days before, 2 days after ACP
# Method: (§1) In this invention, 11 weeks old C57BL/6 mice were used. All the mice used in the experiments of the invention were raised in an aseptic animal room at the temperature of 22˜26 L with the humidity of 55˜60%. The mice were allowed to take general solid feed (SAMTACO Co., Ltd., Korea) and water freely. The mice were adapted for 1 week before the experiment. All the experiments were performed after obtaining approval from the clinical trial management committee in accordance with the laboratory animal care and ethics regulations of Wonkwang University. The mouse animal model of the present invention was treated with different anticancer drugs. Particularly, one kind of anticancer drug was administered intraperitoneally one time or more, or several kinds of anticancer drugs were administered once or more times or at different concentrations, leading to the establishment of the animal model of the invention. […]
# To analyze orexin protein in the 4×ACP animal model prepared by the same manner as described in Example 8, the hypothalamus of the mouse was extracted, followed by the preparation of a homogenate. Orexin (MyBioSource, MBS2505504) was analyzed by ELISA to investigate the regulatory effect of β-lapachone on orexin.
# [1] = tested on: inflammatory cytokines TNF-α, IL-1β, IL-6 and IL-17; experiment: Plasma inflammatory cytokines by ELISA in adriamycin animal model; settings: adriamycin 4 mg/kg/day i.p. ×3; compound 20 mg/kg oral daily from 3 days before; 4 days after final adriamycin; vs adriamycin group
# Method: as §1, with “drugs.” for “drugs. Particularly, one kind of anticancer drug was administered intraperitoneally one time or more, or several kinds of anticancer drugs were administered once or more times or at different concentrations, leading to the establishment of the animal model of the invention.”
# Particularly, plasma was isolated from the adriamycin animal model prepared by the same manner as described in Example 4, and the inflammatory cytokines TNF-α (R&D Systems, MTA00B), IL-1β (R&D Systems, MLB00C), IL-6 (R&D Systems, M6000B) and IL-17 (R&D Systems, M1700) were analyzed by ELISA (enzyme-linked immunosorbent assay).
# To investigate the regulatory effect of β-lapachone on adriamycin induced inflammatory cytokines, plasma was isolated from the adriamycin animal model prepared by the same manner as described in Example 4, and the inflammatory cytokines TNF-α, IL-1β, IL-6 and IL-17 were analyzed by ELISA.
# [2] = tested on: inflammatory cytokines TNF-α and IL-1β; experiment: Brain inflammatory response: TNF-α and IL-1β in hypothalamus (RT-PCR, ELISA), 4×ACP animal model; settings: β-lapachone 20 mg/kg oral, ELISA of homogenate
# Method: In this invention, 11 weeks old C57BL/6 mice were used. All the mice used in the experiments of the invention were raised in an aseptic animal room at the temperature of 22˜26 L with the humidity of 55˜60%. The mice were allowed to take general solid feed (SAMTACO Co., Ltd., Korea) and water freely. The mice were adapted for 1 week before the experiment. All the experiments were performed after obtaining approval from the clinical trial management committee in accordance with the laboratory animal care and ethics regulations of Wonkwang University. The mouse animal model of the present invention was treated with different anticancer drugs. Particularly, one kind of anticancer drug was administered intraperitoneally one time or more, or several kinds of anticancer drugs were administered once or more times or at different concentrations, leading to the establishment of the animal model of the invention. In the adriamycin-induced animal model, the mice were divided into 6 groups as follows: the control group administered with PBS (Control, 5 mice), the group administered intraperitoneally with adriamycin (4 mg/kg/day) 3 times (ADR, 5 mice), the group administered orally with dunnione or β-lapachone from 3 days before the adriamycin treatment daily (20 mg/kg, 5 mice), and the group administered with dunnione or β-lapachone (20 mg/kg, 5 mice). 4 days after the final adriamycin treatment, analysis of the mice was performed.
# The present inventors established an animal model co-treated with three different anticancer drugs in this experiment. The anticancer drugs used herein were adriamycin (ADR), cyclophosphamide (CYP) and paclitaxel (PTX), which were indicated as ACP. […]
# A homogenate was prepared with the mouse hypothalamus extracted from the 4×ACP animal model prepared by the same manner as described in Example 8. Then, the expressions of the inflammatory cytokines TNF-α and IL-1β in the brain tissue were analyzed by ELISA.
compound,measurement,setting,value
"CC1(C)CCC2=C(O1)c1ccccc1C(=O)C2=O [β-lapachone, 3,4-Dihydro-2,2-dimethyl-2H-naphtho(1,2-b) pyran-5,6-dione]",orexin reduction in the hypothalamus,orexin,significantly restored
same,"level of inflammatory cytokines (TNF-α, IL-1β, IL-6, IL-17) in plasma",[1],significantly reduced
same,up-regulations of TNF-α and IL-1β in the hypothalamus,[2],significantly suppressed
